Patent US7683061B2, “Triazine dimers for the treatment of autoimmune diseases” (ProMetic BioSciences Inc., priority 2003, dated 2010)

What was measured:
[1] = system: female Lewis rats, collagen-induced arthritis; assay: Collagen-induced arthritis (CIA); type: in vivo; conditions: intravenous; from day 16 to day 21
Experimental: Collagen-induced arthritis (CIA) was induced in female Lewis rats by intradermal administration of heterologous (bovine) type II collagen (250 μg) solubilized in 0.1 M acetic acid and emulsified in Complete Freund's Adjuvant (CFA). Rats were treated with the vehicle or methotrexate or compound 1 by intravenous injections at day 8, 9, 12, 14 and 16. Synovitis typically develops 12-15 days postimmunization in 80-90% of the animals. Once arthritis appears, each paw was examined two to three times a week. Both the incidence and severity of the arthritis was evaluated. Incidence is defined as the number of rats with clinical evidence of joint inflammation during the study period while severity was quantified by scoring daily each paw integer on a scale of 0 to 4 (0=normal, 4=maximum; Table 7) based on increasing levels of swelling, periarticular erythema and stiffness. The sum of the scores for all four paws was calculated as the arthritic index with a maximum possible score of 16 per rat. Since CIA primarily affects hind limbs, scores of 6-8 represent severe arthritis.

[2] = molecular target: T1, TNFα / p75 TNFα receptor (CD120b) (Homo sapiens, UniProt P01375); assay: Binding ELISA: sTNF-R2 binding to plastic coated TNF-α
T1 sequence (P01375 77-233 limits assumed): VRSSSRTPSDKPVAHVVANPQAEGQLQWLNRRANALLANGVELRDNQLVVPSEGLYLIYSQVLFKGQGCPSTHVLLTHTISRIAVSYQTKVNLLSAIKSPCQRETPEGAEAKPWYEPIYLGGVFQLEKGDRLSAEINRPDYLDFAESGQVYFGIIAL
Experimental: (§1) Compounds were tested for their ability to bind to TNFα or inhibit the interaction of TNFα with its respective receptors; p55 and p75 TNFα receptor. Three binding ELISA assays were undertaken as described by Mancini et al. Biochemical Pharmacology 58, 851-859 (1999). TNFα or receptor (1 μg/mL) was coated on a 96-well plate Maxisorp, overnight at 4° C. After incubation, unbound TNFα or p55 TNFα receptor or p75 TNFα receptor was removed and the plate washed three times with PBS. The plate was then incubated with 100 μL/well of a 2% BSA solution for 1 h at 37° C. to block non specific protein binding. After incubation, the plate was washed three times with PBS. Biotinylated recombinant human TNFα p55 or p75 receptor or biotinylated recombinant human TNFα was added to the wells in the presence or absence of compounds. The plate was incubated for 1 h at 37° C. After incubation, the plate was washed three times with PBS to remove unbound labeled p55 or p75 receptor or recombinant human TNFα. 100 μL of avidin-HRP (diluted 1/2000 in PBS-0.1% BSA) was added to each well and incubated 1 h at 37° C. Bound p55 or p75 receptor or recombinant human TNFα was detected by the addition of 200 μL of 3,3′,5,5′-tetramethylbenzidine (TMB) per well for 15 min. The plate was then read at 655 nm on a EL 800 universal Microplate reader (Bio-Tek, Mississauga, Canada). Data was analyzed in Microsoft Excel and recorded as the percentage of inhibition of p55 or p75 binding to TNFα or TNFα binding to RI (p55) or RII (p75).

[3] = system: peripheral blood mononuclear leukocytes (PBML); assay: PBML protein synthesis (leucine); type: cell-based, human; conditions: for IC50: Homo sapiens, Leukocyte; for effect on protein synthesis (in words): resting and stimulated PBML
Description: (§2) PBML were obtained from the peripheral blood of healthy volunteers. Blood was submitted to gradient centrifugation with Lympholyte-poly (Cedarlane, Hornby, Canada). The layer, which contains the mononuclear leukocytes, was collected and the cells washed three times in PBS. Cells were then suspended in RPMI (Gibco, Burlington, Canada) supplemented with […] (cyclone, Logan USA). Viability was greater than 99% as determined by trypan blue exclusion.
(§3) PBML were resuspended at 2×10^6 cells mL. 100 μL of PBML (2×10^5 cells) were incubated in a 96-well microtiter plate for 48 h in the presence or absence of compound or protein A. Cells were quiescent or stimulated with concanavalin A (ConA; T-cells) or pokeweed mitogen (PWM; B-cells). After incubation, cells were treated with MTT (cytotoxicity) or pulsed with 1 μCi of [^3]-thymidine (DNA synthesis), [^3H]-uridine (RNA synthesis) or [^3]-leucine (protein synthesis) for 6 h. Plates were harvested on a Tomteck and counted on a Microbeta β-counter.

[4] = system: TNFα production, J774A-1 cells; assay: LPS-induced TNFα production in J774A-1 cells (ELISA); type: cell-based; conditions: Mus musculus, J774.A1, 24 h, read-out: IC50 (μM), inhibition of TNFα released by LPS induction
Procedure, shortened: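 J774-1 macrophages were cultured with or without LPS and compound at 37° C for 24 h. TNFα in supernatants measured by ELISA; IC50 is the concentration inhibiting 50% of TNFα production.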

PBML cytotoxicity (MTT) = type: cell-based; conditions: human
Description: as §2, §3

[5] = system: peripheral blood mononuclear leukocytes (PBML); assay: PBML RNA synthesis (uridine); type: cell-based, human; conditions: for IC50: Homo sapiens, Leukocyte; for effect on RNA synthesis (in words): resting and stimulated (ConA and PWM) PBML
Description: as §2, §3

[6] = molecular target: T1, TNFα / p75 TNFα receptor (CD120b); assay: Binding ELISA: TNF-α binding to plastic coated TNF-R2; conditions: for inhibition at 100 µM: 10^−4 M; for inhibition at 10 µM: 10^−5 M
Experimental: as §1

RAW 264.7 cells = assay: Phagocytosis of FITC-immune complexes by RAW 264.7 cells; type: cell-based
Experimental: This assay was performed to determine the ability of protein A mimic compounds to stimulate or inhibit uptake of FITC-Immune Complex (IC). FITC-IC was prepared by mixing human serum albumin (HSA)-fluorescein isothiocyanate (FITC) with mouse IgG anti-HSA at a 1:4 ratio (four molecules of antibody for one molecule of antigen) on a rotary shaker for 1 h at room temperature. Soluble IC was then incubated with or without compounds or protein A for 10 min. This mixture was added to RAW 264.7 cells and incubated for 2 h at 37° C. for IC phagocytosis. After incubation, cells were washed twice in cold PBS (5 min, 1200 rpm) and fixed with 500 μL PBS containing 2% formaldehyde. FITC signal taken up by RAW 264.7, which is indicative of IC phagocytosis, was determined by flow cytometry analysis in a Becton Coulter counter with an argon laser and signal was measured through a 530/30 nm filter.

[7] = molecular target: T2, TNFα / p55 TNFα receptor (CD120a) (Homo sapiens, UniProt P01375); assay: Binding ELISA: sTNF-R1 binding to plastic coated TNF-α
T2 sequence (P01375 77-233 limits assumed): as above
Experimental: as §1

[8] = molecular target: T2, TNFα / p55 TNFα receptor (CD120a); assay: Binding ELISA: TNF-α binding to plastic coated TNF-R1; conditions: for inhibition at 100 µM: 10^−4 M; for inhibition at 10 µM: 10^−5 M
Experimental: as §1

Structure (SMILES)	IC50 ([3]; ConA stimulated PBML) [µM]	IC50 ([3]; PWM stimulated PBML) [µM]	IC50 ([3]; Resting PBML) [µM]	effect on protein synthesis (in words) [3]	IC50 [4] [µM]	IC50 at 48 h (PBML cytotoxicity (MTT); ConA stimulated PBML) [µM]	IC50 at 48 h (PBML cytotoxicity (MTT); PWM stimulated PBML) [µM]	IC50 at 48 h (PBML cytotoxicity (MTT); Resting PBML) [µM]	IC50 ([5]; ConA stimulated PBML) [µM]	IC50 ([5]; PWM stimulated PBML) [µM]	IC50 ([5]; Resting PBML) [µM]	effect on RNA synthesis (in words) [5]	inhibition at 100 µM [6] [%]	inhibition at 10 µM [6] [%]	inhibition at 100 µM [8] [%]	inhibition at 10 µM [8] [%]	further results
Oc1ccc(CCNc2nc(NCCNc3nc(NCCc4ccc(O)cc4)nc(Nc4ccccc4)n3)nc(Nc3ccccc3)n2)cc1 [Compound 1]	2.44	2.96	6.48	inhibit	9.2	8.7	> 10	> 10	0.92	0.66	1.1	suppress	63.3	38.4	46	28.9	reduction of the arthritic index [1]: 20%; inhibition at 100 µM ([2]; 10^−4 M): 0%; inhibition at 10 µM ([2]; 10^−5 M): 0%; inhibition of phagocytosis of IC (RAW 264.7 cells; 10 and 20 μM): approximately 20%; phagocytosis of IC (RAW 264.7 cells; concentrations of 1, 2 and 4 μM): increase; inhibition at 100 µM ([7]; 10^−4 M): 2.7%; inhibition at 10 µM ([7]; 10^−5 M): 0%
Nc1ccc(CCNc2nc(Nc3ccc(CCNc4nc(NCCO)nc(Nc5cccc(N)c5)n4)cc3)nc(Nc3cccc(N)c3)n2)cc1 [Compound 19a]	3.91	4.88	9.9	inhibit	20.7	6.8	> 10	≥ 10	0.693	0.398	0.399	suppress	27.4	24.3	13.3	-4	–
